Laboratory results published in PMC7024208, “In Silico and In Vitro Experimental Studies of New Dibenz[b,e]oxepin-11(6H)one O-(arylcarbamoyl)-oximes Designed as Potential Antimicrobial Agents” (Molecules, 2020).
Values after ≈ are worked out from the molar mass of the structure shown. Read-outs that look alike come from different tables or passages of the source.

Tests used:
E. coli ATCC 25922 [1] = assay: Qualitative antimicrobial screening, adapted disk diffusion; assay type: cell-based, Escherichia coli; set-up: zone of inhibition: dose or concentration left out as unconfirmed
Procedure: (§1) The antimicrobial activities of the synthesized compounds were determined against ATCC reference and clinical microbial strains, i.e., Bacillus subtilis ATCC 6633, Staphylococcus aureus ATCC 25923, Escherichia coli ATCC 25922, Klebsiella pneumoniae 350, Pseudomonas aeruginosa 1671 and Candida albicans ATCC 10231, using as positive controls the antibiotic ticarcillin and the antifungal agent fluconazole. Microbial suspensions of 1.5 × 10^8 CFU/mL corresponding to 0.5 McFarland density obtained from 15–18 h bacterial cultures developed on solid media were used in our experiments. The antimicrobial activity was tested on Mueller-Hinton Agar (MHA) medium, while a Yeast Peptone Glucose (YPG) medium was used in case of C. albicans. The obtained compounds were solubilized in DMSO and the starting stock solution was of 5000 μg/mL concentration. The qualitative screening was performed by an adapted disk diffusion method as previously reported.

E. coli ATCC 25922 [2] = assay: Antibiofilm activity (MBEC), micro-titer method on plastic inert substratum; assay type: cell-based, Escherichia coli; conditions: E. coli ATCC 25922 biofilm on plastic substratum
Procedure: (§2) The assessment of the new compounds influence on the microbial ability to colonize the plastic inert substratum was performed by the micro-titer method, following previously described protocols. The absorbance at 490 nm was measured with an LB 911 ELISA reader (Apollo, Berthold Technologies GmbH & Co. KG, Bad Wildbad, Germany). All biological experiments were performed in triplicates.

S. aureus ATCC 25923 [3] = assay: Qualitative antimicrobial screening, adapted disk diffusion; assay type: cell-based, Staphylococcus aureus; set-up: zone of inhibition: dose or concentration left out as unconfirmed
Procedure: as §1

K. pneumoniae 1771 = assay: as above; assay type: cell-based, Klebsiella pneumoniae; set-up: zone of inhibition: dose or concentration left out as unconfirmed
S. aureus ATCC 25923 [4] = assay: Antibiofilm activity (MBEC), micro-titer method on plastic inert substratum; assay type: cell-based, Staphylococcus aureus; conditions: S. aureus ATCC 25923 biofilm on plastic substratum
Procedure: as §2

B. subtilis ATCC 6633 [5] = assay: as above; assay type: cell-based, Bacillus subtilis; conditions: B. subtilis ATCC 6633 biofilm on plastic substratum
Procedure: as §2

[6] = Cytotoxicity, CellTiter Assay; assay type: cell-based; conditions: human, HCT8 cells, 400–10 µg/mL tested
Procedure: (§3) For the in vitro assessment of the cytotoxic effect, the HCT8 cells and the CellTiter Assay kit (Promega, Madison, WI, USA) and Annexin V-FITC Apoptosis Detection Kit I (BD Bioscience Pharmingen, Franklin Lakes, NJ, USA) were used. Briefly, for CellTiter Assay, 1 × 10^4 cells/well were plated in 96 well plate and 24 h after, were treated with the new compound at final concentration between 400 µg/mL–10 µg/mL. The viability was evaluated after 24 h by adding CellTiter aqueous solution and reading to spectrophotometer according to the manufacturer indications. The IC50 were calculated from the percent of viability reported to untreated cells using on line tools https://www.aatbio.com/tools/ic50-calculator. For Annexin V-FITC Apoptosis Detection Kit I, 5 × 10^5 cells were seeded in 3.5 cm diameter Petri dish and treated with 100 µg/mL compounds solution for 24 h. The total cells were resuspended in 100 µL of binding buffer, and stained with 5 µL Annexin V-FITC and 5 µL propidium iodide for 10 min in dark. At least 10,000 events from each sample were acquired using a flow cytometer (Beckman Coulter, Indianapolis, IN, USA). The percentage of cells affected by the treatment was determined by subtracting the percentage of apoptotic/necrotic cells in the untreated population from percentage of apoptotic cells in the treated population.

B. subtilis ATCC 6633 [7] = assay: MIC by liquid medium microdilution; assay type: cell-based, Bacillus subtilis; conditions: B. subtilis ATCC 6633, 24 h at 37 °C
Procedure: as §1
(§4) The quantitative assay of the antimicrobial activity was performed by the liquid medium microdilution method, in 96 multi-well plates, in order to establish the minimal inhibitory concentration (MIC). In this purpose, serial two-fold dilutions of the compounds ranging between 5000 and 4.8 µg/mL were performed in a 200 µL volume of broth and each well was seeded with 50 µL of microbial inoculum. Sterility control (wells containing only culture medium) and culture controls (wells containing culture medium seeded with the microbial inoculum) were used. The influence of the DMSO solvent was also quantified in a series of wells containing DMSO [36], diluted accordingly with the dilution scheme used for the compounds and for the positive controls.

C. albicans ATCC 10231 [8] = assay: Qualitative antimicrobial screening, adapted disk diffusion; assay type: cell-based, Candida albicans; set-up: zone of inhibition: dose or concentration left out as unconfirmed; conditions: for growth inhibition diameter / zone of inhibition at 5000 µg/mL (stock): C. albicans ATCC 10231, adapted diffusion assay; for zone of inhibition at 5000 µg/mL (stock): ATCC10231, read-out: growth inhibition diameter
Procedure: as §1

P. aeruginosa ATCC 27853 = assay: as above; assay type: cell-based; set-up: zone of inhibition: dose or concentration left out as unconfirmed; conditions: Pseudomonas aeruginosa
B. subtilis ATCC 6633 [9] = assay: as above; assay type: cell-based, Bacillus subtilis; set-up: zone of inhibition: dose or concentration left out as unconfirmed
Procedure: as §1

C. albicans ATCC 10231 [10] = assay: Antibiofilm activity (MBEC), micro-titer method on plastic inert substratum; assay type: cell-based, Candida albicans; conditions: C. albicans ATCC 10231 biofilm on plastic substratum
Procedure: as §2

[11] = Annexin V-FITC/propidium iodide apoptosis analysis by flow cytometry; assay type: cell-based; conditions: human, HCT8 cells, Annexin V-FITC/PI, read-out: viable cells (Q4)
Procedure: as §3

S. aureus ATCC 25923 [12] = assay: MIC by liquid medium microdilution; assay type: cell-based; conditions: Staphylococcus aureus
Procedure: as §1, §4

C. albicans ATCC 10231 [13] = assay: MIC by liquid medium microdilution; assay type: cell-based; conditions: Candida albicans
Procedure: as §1, §4

E. coli ATCC 25922 [14] = assay: MIC by liquid medium microdilution; assay type: cell-based; conditions: Escherichia coli
Procedure: as §1, §4

[15] = B. subtilis ATCC 6633, adapted diffusion assay

Cc1cccc(NC(=O)ON=C2c3ccccc3COc3ccccc32)c1 [Compound 7a, 6,11-Dihydrodibenz[b,e]oxepin-11(6H)one O-(3-tolyl-carbamoyl)oxime]
zone of inhibition (E. coli ATCC 25922 [1]; Escherichia coli, ATCC25922, read-out: growth inhibition diameter): 0 mm | MBEC (E. coli ATCC 25922 [2]): 625 µg/mL | zone of inhibition (S. aureus ATCC 25923 [3]; Staphylococcus aureus, ATCC25923, read-out: growth inhibition diameter): 0 mm | zone of inhibition (K. pneumoniae 1771; Klebsiella pneumoniae, 1771, read-out: growth inhibition diameter): 0 mm | MBEC (S. aureus ATCC 25923 [4]): 39 µg/mL | MBEC (B. subtilis ATCC 6633 [5]): 156 µg/mL | IC50 at 24 h [6]: 264 µg/mL (≈ 737 µM) | MIC (B. subtilis ATCC 6633 [7]): 4.8 µg/mL (≈ 13.4 µM) | MIC (B. subtilis ATCC 6633 [7]; Bacillus subtilis, ATCC6633, 24 h): 4.8 to 39 µg/mL (≈ 13.4 to 109 µM) | growth inhibition diameter (C. albicans ATCC 10231 [8]): anti-C. albicans activity | zone of inhibition (C. albicans ATCC 10231 [8]; Candida albicans, ATCC10231, read-out: growth inhibition diameter): 8 mm | zone of inhibition (P. aeruginosa ATCC 27853; ATCC27853, read-out: growth inhibition diameter): 0 mm | growth inhibition diameter (B. subtilis ATCC 6633 [9]; [15]): anti-B. subtilis | zone of inhibition (B. subtilis ATCC 6633 [9]; Bacillus subtilis, ATCC6633, read-out: growth inhibition diameter): 8 mm | MBEC (C. albicans ATCC 10231 [10]): 39 µg/mL | viability at 24 h, 100 µg/mL [11]: 84.2% | MIC (S. aureus ATCC 25923 [12]; ATCC25923, 24 h): > 5000 µg/mL | MIC (C. albicans ATCC 10231 [13]; ATCC10231, 24 h): 4.8 µg/mL (≈ 13.4 µM) | MIC (E. coli ATCC 25922 [14]; ATCC25922, 24 h): > 5000 µg/mL

OC(Cn1cncn1)(Cn1cncn1)c1ccc(F)cc1F [Fluconazole, fluconazole, reference compound]
zone of inhibition at 5000 µg/mL (stock) (C. albicans ATCC 10231 [8]; Candida albicans): 10 mm | MBEC (C. albicans ATCC 10231 [10]): 39 µg/mL | MIC (C. albicans ATCC 10231 [13]; ATCC10231, C. albicans ATCC 10231, 24 h at 37 °C, read-out: MIC): 4.8 µg/mL (≈ 15.7 µM)

O=C(Nc1cccc(C(F)(F)F)c1)ON=C1c2ccccc2COc2ccccc21 [Compound 7f, 6,11-Dihydrodibenz[b,e]oxepin-11(6H)one O-(3-trifluoromethylphenyl-carbamoyl)oxime]
growth inhibition diameter (E. coli ATCC 25922 [1]; E. coli ATCC 25922, adapted diffusion assay): inhibited the microbial growth | zone of inhibition at 5000 µg/mL (stock) (E. coli ATCC 25922 [1]; Escherichia coli, ATCC25922, E. coli ATCC 25922, adapted diffusion assay, read-out: growth inhibition diameter): 10 mm | growth inhibition diameter (S. aureus ATCC 25923 [3]; S. aureus ATCC 25923, adapted diffusion assay): inhibited the microbial growth | zone of inhibition at 5000 µg/mL (stock) (S. aureus ATCC 25923 [3]; Staphylococcus aureus, ATCC25923, S. aureus ATCC 25923, adapted diffusion assay, read-out: growth inhibition diameter): 8 mm | zone of inhibition at 5000 µg/mL (stock) (K. pneumoniae 1771; Klebsiella pneumoniae, K. pneumoniae 1771, adapted diffusion assay, read-out: growth inhibition diameter): 0 mm | MBEC (S. aureus ATCC 25923 [4]): 39 µg/mL | MBEC (B. subtilis ATCC 6633 [5]): 39 µg/mL | IC50 at 24 h [6]: 54.3 µg/mL (≈ 132 µM) | growth inhibition diameter (C. albicans ATCC 10231 [8]): inhibited the microbial growth | zone of inhibition at 5000 µg/mL (stock) (C. albicans ATCC 10231 [8]; Candida albicans): 12 mm | zone of inhibition at 5000 µg/mL (stock) (P. aeruginosa ATCC 27853; ATCC27853, P. aeruginosa ATCC 27853, adapted diffusion assay, read-out: growth inhibition diameter): 0 mm | growth inhibition diameter (B. subtilis ATCC 6633 [9]; [15]): inhibited the microbial growth | zone of inhibition at 5000 µg/mL (stock) (B. subtilis ATCC 6633 [9]; Bacillus subtilis, ATCC6633, B. subtilis ATCC 6633, adapted diffusion assay, read-out: growth inhibition diameter): 11 mm | viability at 24 h, 100 µg/mL [11]: 14.8% | MIC (S. aureus ATCC 25923 [12]; ATCC25923, S. aureus ATCC 25923, 24 h at 37 °C, read-out: MIC): 4.8 µg/mL (≈ 11.6 µM) | MIC (E. coli ATCC 25922 [14]; ATCC25922, E. coli ATCC 25922, 24 h at 37 °C, read-out: MIC): 78 µg/mL (≈ 189 µM)
